Several values for one entry are separate records, joined by “and”; a condition that tells them apart may be missing. Identical values can stand only once. Entries after “also recorded” stand apart in the source; their conditions may differ.
Legend:
Type in all cases: in vivo, rat
[1] = tested on: Vascular Cell Adhesion Molecule-1 (VCAM-1); assay: Assay C: VCAM-1 relative mRNA expression in heart (TaqMan); conditions: for VCAM, Mean / VCAM: mRNA; for VCAM, Mean: group mean; for VCAM: individual rats
Description: The procedure of Assay B was expanded upon in a further study. […] Myocardial tissue from animals in each treatment group was examined after 7, 14, or 30 days of treatment.
Potassium chloride supplementation was added to the saline solution in order to prevent the potential hypokalemia associated with aldosterone excess.
At the time of the surgery, an Alzet 2002 osmotic minipump (Alza Corp., Palo Alto, Calif.) containing either vehicle (9% ethanol/87% propylene glycol/4% dH2O) or 1.0 mg/mL d-aldosterone (Sigma Chemical, St. Louis, Mo.) was inserted subcutaneously at the nape of the neck. Aldosterone was administered at a dose of 0.75 g/hour. […] Animals were sacrificed from each group (n=8-13) after 7, 14, or 30 days of treatment.
The fluorogenic 5′-nuclease assay (TaqMan PCR) using Applied Biosystems' 7700 Sequence Detection System (Applied Biosystems, Foster City, Calif.) allowed for real time detection/quantitation of a specific gene by monitoring the increase in fluorescence of a gene-specific, dye-labeled oligonucleotide probe. Probes for target and reference genes were labeled at the 5′-end with a 6-carboxyfluorescein (6FAM) reporter dye and at the 3′-end with a 6-carboxy-N,N,N′,N′-tetramethylrhodamine (TAMRA) quencher dye. When the probe was annealed to the target gene, fluorescence of 6FAM was prevented by the close proximity of TAMRA. The exonuclease activity of Taq polymerase released the dyes from the oligonucleotide probe by displacing the probe from the target sequence resulting in fluorescence excitation in direct proportion to the amount of target message present. Data analysis was performed using the Sequence Detection System software from Applied Biosystems.
All primers and probes were designed using Primer Express software supplied with the 7700 Sequence Detection System and synthesized by Applied Biosystems. Standard curves using 5-fold dilutions of total RNA (from 200 ng to 320 pg) were performed to determine the efficiency of each primer/probe set in the TaqMan reaction prior to the analysis of the experimental samples. Primer/probe sets were designed from known sequences of rat genes to be analyzed. All target gene values were normalized to a reference gene, constitutively expressed cyclophilin. Primer/probe set sequences can be found in Table 8.
RNA was extracted from frozen (−80° C.) rat heart tissue using the Totally RNA Isolation Kit (Ambion, Inc., Austin, Tex.). Tissue was crushed using a stainless steel mortar and pestle, which had been chilled to −80° C. and transferred to a dounce homogenizer (Kontes, Vineland, N.J.) containing 3-10 mL cold denaturation buffer. Tissue was homogenized and transferred to a sterile, 15 mL polypropylene centrifuge tube. An equal volume of phenol:chloroform:isoamyl alcohol (25:24:1) was added, samples were shaken vigorously for 1 min, and incubated on ice for at least 15 min. Samples were centrifuged for 30 min at 10,000 g. The aqueous phase was removed, 1/10 volume of a sodium acetate solution (3.0 M NaOAc pH 4.5) was added, samples were shaken or inverted for 10 seconds, and acid-phenol (premixed with isoamyl alcohol):chloroform (5:1, Ambion, Inc.) was added at an volume equivalent to the starting sample volume. Samples were shaken vigorously for 1 min, followed by a 15-min incubation on ice, and centrifuged for 30 min at 10,000 g. The aqueous phase removed and placed in a clean polypropylene tube. An equal volume of isopropanol (Sigma, St. Louis, Mo.) was added and the samples were mixed and incubated overnight at −20° C. The samples were centrifuged for 30 min at 10,000 g, the supernatant was removed and the RNA pellet was resuspended in DNAse/RNAse-free water. Samples were frozen at −80° C. for at least 2 hours, thawed on wet ice, and diluted for quantitation.

[2] = tested on: osteopontin; assay: Assay B aldosterone infusion model: osteopontin immunohistochemistry of hearts; conditions: aldosterone infused rats; eplerenone 100 mpk p.o.
Description: Assay B: In vivo Aldosterone Infusion Model Male Sprague Dawley rats (n=39; BW=250 g) […] Uni-nephrectomy performed during implantation of mini-pumps 2. Aldosterone ([…], sc via aizet minipump) 2. […] 1. […] Sacrifice after 4 weeks. Determination of osteopontin and COX-2 was performed by quantitative RT-PCR (Taqman). Osteopontin was also identified in the heart by immunohistochemistry.

[3] = tested on: osteopontin; assay: Assay A angiotensin II infusion model: osteopontin immunostaining of hearts; conditions: angiotensin II infused, saline-drinking rats; eplerenone 100 mpk
Description: (§1) Male Wistar rats (n—50, 10/group; BW=200 g)
(§2) 2. Angiotensin 11 (25 ng/min, sc via aizet minipump)
Osteopontin (also known as early T-cell activation-1, Eta-1) is a secreted glycoprotein with pro-inflammatory characteristics that mediates chemoattraction, activation and migration of monocytes.

[4] = tested on: hydroxyproline; assay: Assay C: myocardial hydroxyproline assay; conditions: for Hydroxyproline: individual rats; for Hydroxyproline, Mean: group mean
Description: The procedure of Assay B was expanded upon in a further study. […] Myocardial tissue from animals in each treatment group was examined after 7, 14, or 30 days of treatment. […] Lesions were preceded by the expression and progressive upregulation of proinflammatory molecules. […] Prior to surgery the animals were individually weighed and placed in one of the following groups: […] Potassium chloride supplementation was added to the saline solution in order to prevent the potential hypokalemia associated with aldosterone excess. […] Louis, Mo.) was inserted subcutaneously at the nape of the neck. Aldosterone was administered at a dose of […]. […] Animals were sacrificed from each group (n=8-13) after 7, 14, or 30 days of treatment. Following exsanguination, hearts and kidneys were isolated, removed, rinsed in cold phosphate-buffered saline, and blotted dry. […] Myocardial hydroxyproline concentration was measured by a colorimetric assay that quantifies the reaction between oxidized hydroxyproline, and p-dimethylaminobenzaldehyde as described previously (4). […] Dried tissues and a positive collagen control (Bovine Collagen Type I, Sigma, St. […] T. Baker, Phillipsburg, N.J.) for 5 min at 25° C. […] Samples were incubated at 60° C. for 30 min, cooled to room temperature, and absorbance was monitored at 558 nm. Hydroxyproline content was quantitated from a freshly prepared standard curve of trans-4-hydroxy-L-proline (Sigma, St. Louis, Mo.). All samples and standards were performed in duplicate.

[5] = tested on: cyclooxygenase-2 (COX-2); assay: Assay A angiotensin II infusion model: cyclooxygenase-2 immunostaining of hearts; conditions: angiotensin II infused rats; eplerenone 100 mpk
Description: as §1, §2

[6] = tested on: aldosterone infused rats; assay: Assay B aldosterone infusion model: systolic blood pressure by radio-telemetry; conditions: saline-drinking, uni-nephrectomized Sprague Dawley rats, eplerenone 100 mpk p.o.
Description: Assay B: In vivo Aldosterone Infusion Model Male Sprague Dawley rats (n=39; BW=250 g) […] Uni-nephrectomy performed during implantation of mini-pumps 2. Aldosterone ([…], sc via aizet minipump) 2. […] 1. […] SBP measured by radio-telemetry probes inserted in the abdominal aorta Sacrifice after 4 weeks.

With `C[C@]12CCC(=O)C=C1CC[C@@H]1[C@@H]2[C@@H](O)C[C@]2(C=O)[C@@H](C(=O)CO)CC[C@@H]12` [aldosterone] the “VCAM-1 gene expression increase” value ([1]; day 30 of aldosterone+salt treatment, did not reach statistical significance) was “increased two-fold”, the “VCAM, Mean” value ([1]; 30 days of treatment) was 2.14 AU and the VCAM ([1]; 7 days of treatment, listed as Aldosterone + salt) was 0.85 AU and 0.61 AU and 0.94 AU and 0.27 AU. The VCAM ([1]; 14 days of treatment, listed as Aldosterone + salt) was 0.89 AU and 0.69 AU and 0.84 AU and 0.72 AU, the VCAM ([1]; 30 days of treatment, listed as Aldosterone + salt) was 0.72 AU and the “Osteopontin expression in the heart (immunostaining)” value (“Osteopontin expression in the heart” below) [2] was “osteopontin was clearly identified in the media of coronary arteries”. The “Osteopontin expression in the heart” value [3] was “restored osteopontin expression”, the Hydroxyproline ([4]; Table 9.14, 7-day protocol, myocardial, listed as Aldosterone + salt) was 2.10 µg/mg and the Hydroxyproline ([4]; 14 days of treatment, eplerenone 100 mg/kg/day, listed as Aldosterone + salt) was 2.60 µg/mg and 3.00 µg/mg. The Hydroxyproline ([4]; 30 days of treatment, eplerenone 100 mg/kg/day, listed as Aldosterone + salt) was 4.00 µg/mg, the “Cyclooxygenase-2 expression in the heart (immunostaining)” value [5] was “restored the presence of cycloxygenase-2 in coronary arteries” and the Systolic Blood Pressure [6] was “Systolic blood pressure increased”.

In the case of `COC(=O)[C@@H]1CC2=CC(=O)CC[C@]2(C)[C@@]23O[C@@H]2C[C@@]2(C)[C@@H](CC[C@@]24CCC(=O)O4)[C@H]13` [eplerenone, Pregn-4-ene-7,21-dicarboxylic acid, 9,11-epoxy-17-hydroxy-3-oxo-, γ-lactone, methyl ester, (7α, 11α, 17β) -], the “VCAM, Mean” value ([1]; 7 days of treatment) is reported as 0.56 AU, the “VCAM, Mean” value ([1]; 14 days of treatment) is reported as 0.83 AU and the “VCAM, Mean” value ([1]; 30 days of treatment) is reported as 1.04 AU. The VCAM ([1]; 7 days of treatment, listed as Eplerenone + aldosterone + salt) was 0.67 AU and 0.58 AU and 0.22 AU and 0.57 AU and 0.53 AU and 1.00 AU, the VCAM ([1]; 14 days of treatment, listed as Eplerenone + aldosterone + salt) was 0.54 AU and 0.66 AU and 0.61 AU (2×) and 0.67 AU and 0.86 AU and 1.00 AU and 0.68 AU (2×) and 1.60 AU and the VCAM ([1]; 30 days of treatment, listed as Eplerenone + aldosterone + salt) was 0.79 AU and 0.52 AU and 0.57 AU and 0.61 AU. For the same compound, the “VCAM-1 mRNA expression in myocardium” value ([1]; time course 7, 14, 30 days, eplerenone 100 mg/kg/day) was “significantly reduced; also recorded: inhibition of early time-course expression of myocardial ICAM-1 and VCAM-1”, the “Osteopontin expression in the heart” value [2] was “prevention by eplerenone of induction of osteopontin expression; also recorded: prevented the expression of osteopontin” and the “Osteopontin expression in the heart” value [3] was “prevented osteopontin expression”. The “Hydroxyproline, Mean” value ([4]; 14 days of treatment) was 4.46 µg/mg, the “Hydroxyproline, Mean” value ([4]; 30 days of treatment) was 4.10 µg/mg and the Hydroxyproline ([4]; 14 days of treatment, eplerenone 100 mg/kg/day, listed as Eplerenone + aldosterone + salt) was 6.80 µg/mg. The Hydroxyproline ([4]; 30 days of treatment, eplerenone 100 mg/kg/day, listed as Eplerenone + aldosterone + salt) was 6.40 µg/mg, the “Cyclooxygenase-2 expression in the heart (immunostaining)” value [5] was “prevention by eplerenone of induction of COX-2 expression; also recorded: markedly reduced and in most cases completely prevented the expression of cycloxygenase-2” and the Systolic Blood Pressure [6] was “significantly reduced, but did not normalize blood pressure; also recorded: depression of this elevation”.

— patent US20030162759A1, “Aldosterone blocker therapy to prevent or treat inflammation-related disorders” (priority 2000, published 2003)
